Reference: patent US20240407414A1, “DIHYDROCHALCONE DERIVATIVES” (SYMRISE AG, priority 2021, published 2024)
Values joined by “and” are separate entries in the source; they are usually repeats but may differ in a detail not shown here. Equal values may be shown once. “Also recorded” adds a separate entry of the source.

Legend:
[1] = Duo test (paired comparison, trained sensory panel) of compounds against 5% sucrose solution; assay type: in vivo; conditions: 50 mg/kg in 5% sucrose solution; for sweet modul. activity (%): 20 panelists, perceived sweeter than without addition
Text: The sensory impact of trilobatin and compound (1) have been compared by a trained sensory panel (Table 1) using a series of paired comparison tests. The samples were coded and randomized (referred to as Duo test):
Each of compound (1) and trilobatin has been compared with a 5% sucrose solution in water.

[2] = Sensory profile of sugar solution with added compounds; assay type: in vivo; conditions: 80 mg/kg in 5% sucrose solution
[3] = Intrinsic sweetness by Duo test against 1.5% sucrose; assay type: in vivo
Description: 200 g/l L. litseifolius leaf extract (47% trilobatin, 7% phloridizin) was dissolved in triacetin and reacted with lipase Novozyme 435 for 6 h at 80° C. After cooling the mixture, the solution was filtrated. The solution contained 4.2% compound 1. The intrinsic sweetness of the solution was determined by a Duo test comparing different concentrations of this solution with a 1.5% sucrose sample. It turned out that 0.15% of the solution (containing 63 mg/kg compound 1) was as sweet as 1.5% sucrose.
The intrinsic sweetness of pure compound (1) (>95%) was determined by a panel of 20 trained panellists. Thereby, a 1.5% sucrose solution was compared by a Duo test with 65 mg/kg of compound (1) in water. […] The intrinsic sweetness of compound (1) in a mixture of trilobatin and diacetyl trilobatins was similar than of pure compound (1).

[4] = Descriptor intensities (0-9) in orange softdrink base, panel of five flavorists; assay type: in vivo; conditions: for Lingering sweetness (0-9) B / Off note (0-9) B / Onset sweetness (0-9) B / Overall sweetness (0-9) B / acidity (0-9) B / fruity (0-9) B / juicy (0-9) B / mouthfeel (0-9) B / orange (0-9) B: B: + 20 mg/kg G92828 in orange softdrink base; for Lingering sweetness (0-9) B / Off note (0-9) B / Onset sweetness (0-9) B / Overall sweetness (0-9) B / acidity (0-9) B / fruity (0-9) B / juicy (0-9) B / mouthfeel (0-9) B / orange (0-9) B / Lingering sweetness (0-9) A / Off note (0-9) A / Onset sweetness (0-9) A / Overall sweetness (0-9) A / acidity (0-9) A / fruity (0-9) A / juicy (0-9) A / mouthfeel (0-9) A / orange (0-9) A: RS 200, PD 120, HT 10, PH 30 mg/kg, n=5; for Lingering sweetness (0-9) Δ / Off note (0-9) Δ / Onset sweetness (0-9) Δ / Overall sweetness (0-9) Δ / acidity (0-9) Δ / fruity (0-9) Δ / juicy (0-9) Δ / mouthfeel (0-9) Δ / orange (0-9) Δ: difference B vs A (effect of 20 mg/kg G92828); for Lingering sweetness (0-9) A / Off note (0-9) A / Onset sweetness (0-9) A / Overall sweetness (0-9) A / acidity (0-9) A / fruity (0-9) A / juicy (0-9) A / mouthfeel (0-9) A / orange (0-9) A: A: substance alone in orange softdrink base
Description: Different descriptors relevant for the overall liking of an orange softdrink were applied and the differences in intensities of each descriptor (Δ) of FMP (A) to FMP+ compound (1) (B) were determined by a panel of five flavorists (n=5) and given as intensities from 0-9 as shown in Tables 4-12. The panelists were asked to neutralise with tap water between each sample and the intensity of the descriptors of each sample were defined before tasting the next sample. The tasting of each RS, PD, HT or PH (A) were followed by the samples with added RS, PD, HT or PH+compound (1) (B) with each being compared to the intensities of the base.

[5] = Sweet taste / sweetness enhancing properties of 6″-O-acetylphloridzin; conditions: in vivo
Text: It can therefore not be concluded that any dihydrochalcone glycoside carrying an acetyl substituent will taste sweet or be able to enhance or modulate sweetness.

[6] = cited from earlier work
[7] = soft drink base and in combination with RS, PD, HT and PH

SMILES	significance of sweet modulating activity / sensory effect [1]	sweet modul. activity (%) [1]	Aftertaste [2]	Lingering sweetness (0-9) B [4]	Off note (0-9) B [4]	Onset sweetness (0-9) B [4]	Overall sweetness (0-9) B [4]	acidity (0-9) B [4]	fruity (0-9) B [4]	juicy (0-9) B [4]	mouthfeel (0-9) B [4]	orange (0-9) B [4]	Lingering sweetness (0-9) Δ [4]	Off note (0-9) Δ [4]	Onset sweetness (0-9) Δ [4]	Overall sweetness (0-9) Δ [4]	acidity (0-9) Δ [4]	fruity (0-9) Δ [4]	juicy (0-9) Δ [4]	mouthfeel (0-9) Δ [4]	further results
CC(=O)OC[C@H]1O[C@@H](Oc2cc(O)c(C(=O)CCc3ccc(O)cc3)c(O)c2)[C@H](O)[C@@H](O)[C@@H]1O [compound (1), 6″-O-acetyltrilobatin]	significant	27.5% and 27.54%	1	0.0	0.0	4.5	6.0	3.5	5.0	4.0	4.0	5.0	0.0	0.0	0.5	1.0	−0.5	0.0	0.0	0.5	Impact [2]: 4; Intensity [2]: 6; Mouthfeel [2]: 5; concentration of compound 1 contained in solution as sweet as 1.5% sucrose ([3]; in enzymatically acetylated L. litseifolius leaf extract solution (4.2% compound 1) dosed at 0.15%): 63 mg/kg; intrinsic sweetness in a mixture of trilobatin and diacetyl trilobatins compared with pure compound ([3]; in vivo): similar; effect on perceived acidity ([4]; base, RS, HT and PH): reducing perceived acidity; effect on acidity ([4]; in combination with PD): no reduction in acidity; effect on lingering aftertaste ([4]; in combination with PD): slightly reduced; effect on overall sweetness ([4]; in combination with PH, compared to PH): no increase in overall sweetness; effect on lingering aftertaste ([4]; in combination with RS): slight increase in lingering aftertaste; effect on fruity notes ([4]; in combination with RS and PD): increasing fruity notes; effect on overall sweetness ([4]; in combination with RS, PD and HT): increased; effect on onset sweetness ([4]; in combination with RS, PD, HT and PH): increases the onset sweetness; effect on juicy character ([4]; in combination with each tested FMP): increasing the juicy character; effect on intensity of orange flavor [4, 7]: no impact; effect on off notes [4, 7]: no impact; effect on juicy notes ([4]; test base alone): no effect; effect on mouthfeel ([4]; test base and every tested FMP): improves the mouthfeel
O=C(CCc1ccc(O)cc1)c1c(O)cc(O)cc1O [PH, Phloretin]	–	–	–	0.0	0.0	6.0	6.5	3.0	5.5	5.5	5.0	5.0	0.0	0.0	1.0	0.0	−0.5	0.0	0.5	1.0	Lingering sweetness (0-9) A [4]: 0.0; Off note (0-9) A [4]: 0.0; Onset sweetness (0-9) A [4]: 5.0; Overall sweetness (0-9) A [4]: 6.5; acidity (0-9) A [4]: 3.5; fruity (0-9) A [4]: 5.5; juicy (0-9) A [4]: 5.0; mouthfeel (0-9) A [4]: 4.0; orange (0-9) A [4]: 5.0; orange (0-9) Δ [4]: 0.0
CC(=O)OC[C@H]1O[C@@H](Oc2cc(O)cc(O)c2C(=O)CCc2ccc(O)cc2)[C@H](O)[C@@H](O)[C@@H]1O [6″-O-Acetylphloridzin]	–	–	–	–	–	–	–	–	–	–	–	–	–	–	–	–	–	–	–	–	sweet taste or sweetness enhancing properties [5]: did not show any sweet taste or sweetness enhancing properties
COc1ccc([C@@H]2CC(=O)c3c(O)cc(O)cc3O2)cc1O [HT, Hesperetin]	–	–	–	0.0	0.0	6.0	7.5	3.5	5.0	5.0	4.5	5.0	0.0	0.0	1.0	1.5	−0.5	0.0	1.0	0.5	Lingering sweetness (0-9) A [4]: 0.0; Off note (0-9) A [4]: 0.0; Onset sweetness (0-9) A [4]: 5.0; Overall sweetness (0-9) A [4]: 6.0; acidity (0-9) A [4]: 4.0; fruity (0-9) A [4]: 5.0; juicy (0-9) A [4]: 4.0; mouthfeel (0-9) A [4]: 4.0; orange (0-9) A [4]: 5.0; orange (0-9) Δ [4]: 0.0
O=C(CCc1ccc(O)cc1)c1c(O)cc(O[C@@H]2O[C@H](CO)[C@@H](O)[C@H](O)[C@H]2O)cc1O [trilobatin, phloretin-4′-β-D-glucopyranoside]	did not have a significant sensory effect; also recorded: did not show a significant sensory effect	1.66%	1	–	–	–	–	–	–	–	–	–	–	–	–	–	–	–	–	–	Impact [2]: 3; Intensity [2]: 4; Mouthfeel [2]: 5; taste at 20 mg/kg ([6]; 20 mg/kg): does not taste sweet; taste at 100 mg/kg ([6]; 100 mg/kg, compared to 0.5% sucrose solution): weakly sweet; concentration above which sweetness can be detected ([6]; in vivo): above 60 mg/kg
